US20200231912A1, “USE OF STEVIOL GLYCOSIDE IN MALTING” (Corn Products Development, Inc., priority 2017, published 2020)

System: two row barley
Experiment: Germination rate assay
Type: in vivo
Conditions: Example 2; 4.5 days germination; % printed
Protocol: The Germination rate assay informs the percentage of germinated kernels during malting. One hundred barley grains are placed inside each one of four Petri plates containing 4mL of distilled water in a paper filter. The number of germinated kernels is measured after 24, 48 and 72 hours respectively. The germination rate is defined comparing the number of germinated kernels at 24, 48 and 72 h with total number of kernels (400). Typical result for Germination rate analysis is minimum 95%.

Row | Molecule | Germination rate [%]
1 | C=C1C[C@]23C[C@@]1(O)CC[C@H]2[C@@]12C=C[C@H](O)[C@@](C)(C(=O)O1)[C@H]2[C@@H]3C(=O)O [Control 3, Gibberellic acid] | 90

System: two row barley
Experiment: Huzzar rate assay
Type: in vivo
Conditions: Example 2; 4.5 days germination; % printed
Source text: The Huzzar rate assay informs the ratio of cereal kernels in which the acrospires have emerged from end of grains. A range of devices have been used as measuring aids having magnifying lenses and ruled scales with diverging lines that are arranged over the grain with the base and tip at the “0” and “1” lines and then divide the grain length into ¼, ½, ⅔, ¾, 1 and 1+ or overgrown. The results may be expressed as an average value. Typical result for Huzzar rate analysis is maximum 3%.

Row | Molecule | Huzzar rate [%]
2 | C=C1C[C@]23C[C@@]1(O)CC[C@H]2[C@@]12C=C[C@H](O)[C@@](C)(C(=O)O1)[C@H]2[C@@H]3C(=O)O [Control 3, Gibberellic acid] | 5

System: two row barley
Experiment: Malting trials: overall malt quality against defined specifications
Conditions: Example 2; inferred from content in compositions A-E and Table 6
Protocol: Cereal grain malting trials were performed according to the methods described herein to compare Control malts # 1, 2 and 3 with Test malts # 1, 2, 3, 4 and 5, where steviol glycosides were added at the following rates: • Test 1: 0.00019 kg per 1 metric ton of unmalted barley; • Test 2: 0.00013 kg per 1 metric ton of unmalted barley; • Test 3: 0.00024 kg per 1 metric ton of unmalted barley; • Test 4: 0.00070 kg per 1 metric ton of unmalted barley; • Test 5: 0.00043 kg per 1 metric ton of unmalted barley; The steviol glycosides were added at the beginning of the germination process, prior to kilning. Table 5 illustrates the weight percent ranges of each steviol glycoside in a mixture of steviol glycosides.
Control malts # 1, 2 and 3 and Test malts # 1, 2, 3, 4 and 5 were prepared as follows. The general process is illustrated in FIG. 10.
Control Malt # 1 was produced according to the steeping process described in FIG. 10, which was performed in flat bottomed steep vessel, adding 400 kg of 100% two row barley having a 10% moisture content to water. The steeping process included three steeping steps, including a steeping step which was conducted for 1:15 hours and followed by a drying step which was aeration at 19-21° C. during 6 hours. The steeping step was repeated two times. When the steeping degree of the cereal grains measured ≥42%, the water was drained off in preparation for germination. Steviol glycosides and/or gibberellic acid were not added during Control Malt # 1 production.
The germinating step of Control Malt # 1 is described in FIG. 10, which occurred in a typical rectangular germination box (e.g., unit type Saladin) for 5.5 days. The ventilation air temperature during the germinating step was 15-18° C. from the first until the third germination day, followed by ventilation air temperature of 11-15° C. from the third until the last germination day, and the moisture content was 43-47%. The malt turning procedures, which provide the mixing for the germinating kernels, were used first after 24 hours of germination and second after 48 hours of germination. Once the germination time achieved the expected value for Control Malt # 1, the kernels were kilned.
The kilning step is then described in FIG. 10 as using a single floor kiln with gas heating. The kernels were heated for 16:30 hours using hot air from 55-70° C., then for 5 hours using hot air at 80° C. […] The malt was cleaned by removing the rootlets using a malt deculming screw, and the cleaned malt was packaged into 25 kilogram bags.

Row | effect on proteolytic enzymes activity and protein breakdown | Molecule | impact on stimulation of barley germination
3 |  | C=C1C[C@@]23CC[C@H]4[C@@](C)(CCC[C@@]4(C)C(=O)O[C@@H]4O[C@H](CO)[C@@H](O)[C@H](O)[C@H]4O[C@@H]4O[C@H](CO)[C@@H](O)[C@H](O)[C@H]4O)[C@@H]2CC[C@]1(O[C@@H]1O[C@H](CO)[C@@H](O)[C@H](O[C@@H]2O[C@H](CO)[C@@H](O)[C@H](O)[C@H]2O)[C@H]1O[C@@H]1O[C@H](CO)[C@@H](O)[C@H](O)[C@H]1O)C3 [Rebaudioside D] | do not seem to play a significant role
4 | appears to have an effect | C=C1C[C@@]23CC[C@H]4[C@@](C)(CCC[C@@]4(C)C(=O)O[C@@H]4O[C@H](CO)[C@@H](O)[C@H](O)[C@H]4O)[C@@H]2CC[C@]1(O[C@@H]1O[C@H](CO)[C@@H](O)[C@H](O[C@@H]2O[C@H](CO)[C@@H](O)[C@H](O)[C@H]2O)[C@H]1O[C@@H]1O[C@H](CO)[C@@H](O)[C@H](O)[C@H]1O)C3 [Rebaudioside A] | positive impact
5 |  | Rebaudioside F | seems to impact barley germination at certain content ranges
6 |  | C=C1C[C@@]23CC[C@H]4[C@@](C)(CCC[C@@]4(C)C(=O)O[C@@H]4O[C@H](CO)[C@@H](O)[C@H](O)[C@H]4O)[C@@H]2CC[C@]1(O[C@@H]1O[C@H](CO)[C@@H](O)[C@H](O)[C@H]1O[C@@H]1O[C@H](CO)[C@@H](O)[C@H](O)[C@H]1O)C3 [Stevioside] | do not seem to play a significant role
7 |  | C=C1C[C@@]23CC[C@H]4[C@@](C)(CCC[C@@]4(C)C(=O)O)[C@@H]2CC[C@]1(O[C@@H]1O[C@H](CO)[C@@H](O)[C@H](O)[C@H]1O[C@@H]1O[C@H](CO)[C@@H](O)[C@H](O)[C@H]1O)C3 [Steviolbioside] | do not seem to play a significant role
8 |  | C=C1C[C@@]23CC[C@H]4[C@@](C)(CCC[C@@]4(C)C(=O)O[C@@H]4O[C@H](CO)[C@@H](O)[C@H](O)[C@H]4O)[C@@H]2CC[C@]1(O[C@@H]1O[C@H](CO)[C@@H](O)[C@H](O)[C@H]1O[C@@H]1O[C@@H](C)[C@H](O)[C@@H](O)[C@H]1O)C3 [Dulcoside A] | negative impact
9 |  | Rebaudioside C | positive impact
10 |  | C=C1C[C@@]23CC[C@H]4[C@@](C)(CCC[C@@]4(C)C(=O)O[C@@H]4O[C@H](CO)[C@@H](O)[C@H](O)[C@H]4O)[C@@H]2CC[C@]1(O[C@@H]1O[C@H](CO)[C@@H](O)[C@H](O)[C@H]1O)C3 [Rubusoside] | do not seem to play a significant role
11 |  | Rebaudioside B | seems to impact barley germination at certain content ranges
